Patent publication US20130040893A1, “TREATMENT OF PROLIFERATIVE DISORDERS” (TETRALOGIC PHARMACEUTICALS CORPORATION, priority 2005, published 2013)
Where two headings read alike, the source gives them in different places. One block for each molecule: values may come before it. Residues, ends and D or L forms follow the SMILES beside them.

What was measured:
BIR-3 domain of cIAP-1 [1] = molecular target: BIR-3 domain of cIAP-1 (Homo sapiens, UniProt Q13490); experiment: Fluorescence polarization binding assay, cIAP-1 BIR-3 domain
Procedure: (§6) IC50 values (Table I) were determined from the plot using nonlinear least-squares analysis using GraphPad Prism.
(§7) We have utilized the specificity of this IAP binding motif in a fluorescence polarization assay to measure the binding affinities for cIAP-1 Antagonists. The fluorescence polarization assay consists of FP peptide {Sri: What is “FP Peptide”?}, and the recombinant BIR3 domain of the XIAP protein. The FP peptide and mimics of cIAP-1 N-terminus compete for binding to the BIR3 protein. […] If a peptide, peptidomimetic, or other small molecule being tested is a competitor, then it succeeds in displacing the FP peptide, resulting in a low mP value. Molecules that compete with the FP peptide can be titrated and IC50 values determined (GraphPad Prism nonlinear regression curve-fitting program) by plotting mp value as the direct measure of fraction bound vs. the log of the compound concentration.

BIR-3 domain of XIAP = BIR-3 domain of XIAP (Homo sapiens, UniProt P98170); experiment: Fluorescence polarization binding assay, XIAP BIR-3 domain
Procedure: as §6, §7

SK-OV-3 cells = experiment: MTT cell growth assay in SK-OV-3 ovarian cancer cells; format: cell-based; settings: Homo sapiens
Procedure: The MTT assay is an example of an assay that has been used for measuring cell growth as previously described (Hansen, M. B., Nielsen, S. E., and Berg, K. (1989) J. Immunol. Methods 119, 203-210) and incorporated herein by reference in its entirety. Briefly, SK-OV-3 cells were seeded in 96-well plates in McCoy's medium containing 10% fetal bovine serum […] (10,000 per well) and incubated overnight at 37° C.
μM) and the plates were incubated at 37° C. for an additional 72 hrs. This incubation time was optimal for measuring inhibitory effects of different analogs. 50 microliters of 5 mg/mL MTT reagent to each well was added and the plates were incubated at 37° C. for 3 hours. At the end of incubation period, 50 microliters of DMSO was added to each well to dissolve cells and the optical density (OD) of the wells was measured with a microplate reader (Victor^2 1420, Wallac, Finland) at 535 nm. Cell survival (CS) was calculated by the following equation:
CS=(OD treated well/mean OD control wells)×100%.
The EC50 (Table 1), defined as the drug concentration that results in 50% CS, was derived by calculating the point where the dose-response curve crosses the 50% CS point using GraphPad Prism.

OVCAR-3 cell line = experiment: Synergistic toxicity with SN-38, MTT matrix; format: cell-based
Source text: MTT assays were setup by testing a matrix of concentrations of both drugs.

BIR-3 domain of cIAP-1 [2] = experiment: Fluorescence polarization binding assay, cIAP-1 BIR-3 domain; settings: cIAP-1 relative to XIAP
Procedure: as §6, §7

cIAP-1 = molecular target: T1, cIAP-1 (Homo sapiens, UniProt Q13490); experiment: Western blot of cIAP-1 degradation in SKOV3 cells; format: cell-based; settings: SK-OV-3 cells, 20 hrs, absence of bortezomib
T1 construct: endogenous in cells; host or cells: SKOV3 (SK-OV-3) cells
Procedure: (§1) SKOV3 cells were passed into six 60×15 mm tissue culture dishes 2 days before experiment. Cells appeared to be ˜80% confluent at time of harvest. […] A 10-fold dilution of this solution into medium A gave the 100 nM working solution.
(§2) Western blot analysis was carried out using standard technique. Briefly, cells were lysed using the MPER mammalian cell lysis solution (Bio-Rad #78503) to which 10 μl/mL of a 100× solution of HALT protease inhibitor cocktail (Bio-Rad #78410) has been added. To each dish of cells, 200 μl of the lysis solution plus protease inhibitors is added. The cells in each dish are scraped using a cell scraper and allowed to incubate with the reagent for 10 minutes. The lysates were transferred to pre-chilled microfuge tubes and spun for 20 minutes at 15,000×g at 4° C. The supernatant was transferred to a clean, chilled microfuge tube.
(§3) Next, the total protein content of the lysates was determined using the BCA Protein Assay according to the manufacturer's protocol and using interpolation from a standard curve generated with BSA.
(§4) The samples were normalized for protein content during preparation for gel electrophoresis. The samples were prepared using 2× Laemmli Sample buffer to which 200 mM DTT was added. […]

XIAP = molecular target: T2, XIAP (Homo sapiens, UniProt P98170); experiment: Western blot of XIAP degradation in SKOV3 cells; format: cell-based; settings: SK-OV-3 cells, 20 hrs, absence of bortezomib
T2 construct: SKOV3 cells were passed into six 60×15 mm tissue culture dishes; endogenous in cells; host or cells: SKOV3 (SK-OV-3) cells
Procedure: as §1, §2, §3, §4

SK-OV-3^R cells = experiment: TRAIL sensitivity MTT assay in IAP Antagonist-resistant SK-OV-3 cells; format: cell-based
Procedure: (§5) Another unexpected observation we made was with respect to TRAIL sensitivity. IAP Antagonist-resistant SK-OV-3 cells (SK-OV-3^R) were generated by exposing the parental SK-OV-3 cells (SK-OV-3^S) to an IAP antagonist compound at a concentration that kills 95% of cells. Three days later, viable cells were transferred to a fresh flask and grown to confluency. Two weeks later, the cells were tested for IAP Antagonist sensitivity in an MTT assay as described above and as expected, found these cells to be resistant to IAP Antagonist cytotoxicity.

SK-OV-3^S cells = experiment: TRAIL sensitivity MTT assay in parental SK-OV-3 cells; format: cell-based
Procedure: as §5

[3] = SK-OV-3 cells, 72 hrs, read-out: MTT EC50

Sequence of BIR-3 domain of cIAP-1 (Homo sapiens, UniProt Q13490) (Q13490 266-352 limits assumed): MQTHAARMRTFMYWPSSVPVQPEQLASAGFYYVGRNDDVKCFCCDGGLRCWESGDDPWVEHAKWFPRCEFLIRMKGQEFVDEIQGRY
Sequence of BIR-3 domain of XIAP (P98170 241-356 limits assumed): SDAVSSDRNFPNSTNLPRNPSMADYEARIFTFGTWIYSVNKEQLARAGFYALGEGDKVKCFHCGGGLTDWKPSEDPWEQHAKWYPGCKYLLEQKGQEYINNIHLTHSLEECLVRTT
T2 sequence (P98170 whole entry): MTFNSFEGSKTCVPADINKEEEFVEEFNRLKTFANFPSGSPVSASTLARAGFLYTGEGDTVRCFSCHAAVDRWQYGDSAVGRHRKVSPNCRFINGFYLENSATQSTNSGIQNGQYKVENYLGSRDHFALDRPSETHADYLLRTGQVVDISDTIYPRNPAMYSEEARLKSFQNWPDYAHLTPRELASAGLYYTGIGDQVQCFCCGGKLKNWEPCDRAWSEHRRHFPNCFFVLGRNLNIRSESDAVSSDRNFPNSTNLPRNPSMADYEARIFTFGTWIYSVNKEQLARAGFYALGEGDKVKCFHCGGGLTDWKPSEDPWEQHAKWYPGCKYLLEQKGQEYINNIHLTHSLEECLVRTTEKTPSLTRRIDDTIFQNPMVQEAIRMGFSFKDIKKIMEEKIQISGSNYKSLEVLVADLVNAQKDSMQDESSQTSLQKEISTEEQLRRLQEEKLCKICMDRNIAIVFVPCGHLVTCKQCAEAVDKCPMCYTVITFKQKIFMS
T1 sequence (Q13490 whole entry): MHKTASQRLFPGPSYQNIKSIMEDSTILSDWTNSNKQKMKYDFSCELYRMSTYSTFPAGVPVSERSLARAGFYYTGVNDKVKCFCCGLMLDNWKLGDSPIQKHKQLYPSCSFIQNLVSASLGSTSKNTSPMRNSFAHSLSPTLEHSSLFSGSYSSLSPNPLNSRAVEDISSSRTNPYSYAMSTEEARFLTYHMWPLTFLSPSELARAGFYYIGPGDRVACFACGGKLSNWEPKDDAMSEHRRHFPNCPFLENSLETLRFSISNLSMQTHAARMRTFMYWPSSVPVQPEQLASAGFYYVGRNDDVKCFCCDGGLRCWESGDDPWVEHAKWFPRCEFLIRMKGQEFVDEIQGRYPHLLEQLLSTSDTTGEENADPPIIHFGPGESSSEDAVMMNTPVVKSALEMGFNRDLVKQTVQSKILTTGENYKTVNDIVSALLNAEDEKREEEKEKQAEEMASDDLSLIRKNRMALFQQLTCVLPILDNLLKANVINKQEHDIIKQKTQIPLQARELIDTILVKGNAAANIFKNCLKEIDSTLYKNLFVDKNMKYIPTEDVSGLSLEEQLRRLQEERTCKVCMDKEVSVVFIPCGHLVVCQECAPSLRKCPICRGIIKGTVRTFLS

Molecule: CC(C)[C@H](NC(=O)[C@H](C)N)C(=O)N1CCC[C@H]1C(=O)N[C@@H](Cc1ccccc1)C(=O)O [AVPF, reference compound] (H-AVPF-OH)
IC50 (BIR-3 domain of cIAP-1 [1]): 10 to 100 nM

Molecule: CCC(C)[C@H](NC(=O)[C@H](C)NC)C(=O)N1CCC[C@H]1Cc1c2n(c3ccc(F)cc13)CCn1c-2c(C[C@@H]2CCCN2C(=O)[C@@H](NC(=O)[C@H](C)NC)C(C)CC)c2cc(F)ccc21 (stereo partly drawn) [A]
IC50 (BIR-3 domain of XIAP): 10 to 100 nM
EC50 (SK-OV-3 cells; [3]): < 10 nM
IC50 (BIR-3 domain of cIAP-1 [1]): < 10 nM

Molecule: CN[C@@H](C)C(=O)N[C@H](C(=O)N1CCC[C@H]1Cc1c[nH]c2ccc(C)cc12)[C@@H](C)O [C]
IC50 (BIR-3 domain of XIAP): > 100 nM
EC50 (SK-OV-3 cells; [3]): < 10 nM
IC50 (BIR-3 domain of cIAP-1 [1]): < 10 nM

Molecule: CC(C)[C@H](NC(=O)CN)C(=O)N1C[C@@H](Oc2ccccc2)C[C@H]1Cc1coc2ccccc12 [Compound I]
synergistic toxicity with SN-38 (synergistic volume) (OVCAR-3 cell line): comparable
IC50 (BIR-3 domain of XIAP): > 100 nM
IC50 (BIR-3 domain of XIAP; read-out: IC50 (XIAP), Table 10): > 100 nM
EC50 (SK-OV-3 cells; SK-OV-3, Table 10, read-out: MTT (SKOV-3)): < 10 nM
EC50 (SK-OV-3 cells; [3]): < 10 nM
IC50 (BIR-3 domain of cIAP-1 [1]): < 10 nM
IC50 (BIR-3 domain of cIAP-1 [1]; read-out: IC50 (cIAP-1), Table 10): < 10 nM
binding to cIAP-1 more tightly than to XIAP (BIR-3 domain of cIAP-1 [2]): 117 fold

Molecule: CN[C@@H](C)C(=O)N[C@H](C(=O)N1C[C@@H](OC(C)=O)C[C@H]1Cc1c[nH]c2ccccc12)[C@@H](C)O [D]
IC50 (BIR-3 domain of XIAP): > 1000 nM
IC50 (BIR-3 domain of cIAP-1 [1]): > 1000 nM

Molecule: CN[C@@H](C)C(=O)N[C@H](C(=O)N1C[C@@H](OC(C)=O)C[C@H]1Cc1c[nH]c2ccccc12)C(C)(C)C [E]
IC50 (BIR-3 domain of XIAP): > 100 nM
EC50 (SK-OV-3 cells; [3]): 10 to 100 nM
IC50 (BIR-3 domain of cIAP-1 [1]): < 10 nM

Molecule: CN[C@@H](C)C(=O)N[C@H](C(=O)N1C[C@@H](OC(C)=O)C[C@H]1Cc1c[nH]c2ccccc12)C(C)C [F]
IC50 (BIR-3 domain of XIAP): 10 to 100 nM
EC50 (SK-OV-3 cells; [3]): 10 to 100 nM
IC50 (BIR-3 domain of cIAP-1 [1]): < 10 nM

Molecule: CN[C@@H](C)C(=O)N[C@H](C(=O)N1CCC[C@H]1Cc1c[nH]c2ccc(C)cc12)C(C)C [G]
IC50 (BIR-3 domain of XIAP): 10 to 100 nM
EC50 (SK-OV-3 cells; [3]): 10 to 100 nM
IC50 (BIR-3 domain of cIAP-1 [1]): < 10 nM

Molecule: CC(C)[C@H](NC(=O)[C@H](C)N)C(=O)N1CCC[C@H]1Cc1c(-c2ccc(-c3oc4ccccc4c3C[C@@H]3CCCN3C(=O)[C@@H](NC(=O)[C@H](C)N)C(C)C)cc2)[nH]c2ccccc12 [J]
IC50 (BIR-3 domain of XIAP): > 100 nM
EC50 (SK-OV-3 cells; [3]): > 100 nM
IC50 (BIR-3 domain of cIAP-1 [1]): > 100 nM

Molecule: CN[C@@H](C)C(=O)N[C@H](C(=O)N1CCC[C@H]1Cc1c(-c2ccc(-c3c(C[C@@H]4CCCN4C(=O)[C@@H](NC(=O)[C@H](C)NC)C(C)C)c4ccc(F)cc4n3CCOC(C)=O)cc2)n(CCOC(C)=O)c2cc(F)ccc12)C(C)C [O]
IC50 (BIR-3 domain of XIAP): > 1000 nM
EC50 (SK-OV-3 cells; [3]): > 1000 nM
IC50 (BIR-3 domain of cIAP-1 [1]): > 1000 nM

B1: TRAIL: tumor necrosis factor-related apoptosis-inducing ligand, member of the TNF superfamily (protein, UniProt P50591 1-281, looked up)
Tumor necrosis factor ligand …: MAMMEVQGGPSLGQTCVLIVIFTVLLQSLCVAVTYVYFTNELKQMQDKYSKSGIACFLKEDDSYWDPNDEESMNSPCWQVKWQLRQLVRKMILRTSEETISTVQEKQQNISPLVRERGPQRVAAHITGTRGRSNTLSSPNSKNEKALGRKINSWESSRSGHSFLSNLHLRNGELVIHEKGFYYIYSQTYFRFQEEIKENTKNDKQMVQYIYKYTSYPDPILLMKSARNSCWSKDAEYGLYSIYQGGIFELKENDRIFVSVTNEHLIDMDHEASFFGAFLVG
TRAIL sensitivity (SK-OV-3^R cells): sensitive to TRAIL
TRAIL sensitivity (SK-OV-3^S cells): resistant to TRAIL

More lines, now with the values ahead:

IC50 (BIR-3 domain of XIAP): > 100 nM
EC50 (SK-OV-3 cells; [3]): 10 to 100 nM
IC50 (BIR-3 domain of cIAP-1 [1]): 10 to 100 nM
Molecule: CN[C@@H](C)C(=O)N[C@H](C(=O)N1CCC[C@H]1Cc1cn(CCOCCn2cc(C[C@@H]3CCCN3C(=O)[C@@H](NC(=O)[C@H](C)NC)C3CCCCC3)c3ccccc32)c2ccccc12)C1CCCCC1 [K]

IC50 (BIR-3 domain of XIAP): > 100 nM
EC50 (SK-OV-3 cells; [3]): < 10 nM
IC50 (BIR-3 domain of cIAP-1 [1]): 10 to 100 nM
Molecule: CC(C)[C@@H](NC(=O)[C@@H](C)N)C(=O)N1CCC[C@@H]1Cc1c(-c2ccc(-c3oc4ccccc4c3C[C@H]3CCCN3C(=O)[C@H](NC(=O)[C@@H](C)N)C(C)C)cc2)[nH]c2ccccc12 [L]

IC50 (BIR-3 domain of XIAP): 10 to 100 nM
EC50 (SK-OV-3 cells; [3]): 10 to 100 nM
IC50 (BIR-3 domain of cIAP-1 [1]): 10 to 100 nM
Molecule: CN[C@@H](C)C(=O)N[C@H](C(=O)N1C[C@@H](O)C[C@H]1Cc1c(-c2ccc(-c3[nH]c4ccccc4c3C[C@@H]3C[C@H](O)CN3C(=O)[C@@H](NC(=O)[C@H](C)NC)C(C)(C)C)cc2)[nH]c2ccccc12)C(C)(C)C [M]

IC50 (BIR-3 domain of XIAP): 10 to 100 nM
EC50 (SK-OV-3 cells; [3]): < 10 nM
IC50 (BIR-3 domain of cIAP-1 [1]): 10 to 100 nM
Molecule: CN[C@@H](C)C(=O)N[C@H](C(=O)N1CCC[C@H]1Cc1c(-c2ccc(-c3c(C[C@@H]4CCCN4C(=O)[C@@H](NC(=O)[C@H](C)NC)C(C)(C)C)c4ccc(F)cc4n3CCO)cc2)n(CCO)c2cc(F)ccc12)C(C)(C)C [N]

IC50 (BIR-3 domain of XIAP): 10 to 100 nM
EC50 (SK-OV-3 cells; [3]): < 10 nM
IC50 (BIR-3 domain of cIAP-1 [1]): 10 to 100 nM
Molecule: CN[C@@H](C)C(=O)N[C@H](C(=O)N1CCC[C@H]1Cc1c(-c2ccc(C(=O)OC)cc2)n(CCOCCOCCOC)c2cc(F)ccc12)C(C)(C)C [P]

cIAP-1 protein by western blot (cIAP-1): complete disappearance
IC50 (BIR-3 domain of XIAP): 10 to 100 nM
EC50 (SK-OV-3 cells; [3]): < 10 nM
IC50 (BIR-3 domain of cIAP-1 [1]): 10 to 100 nM
XIAP protein by western blot (XIAP): complete disappearance
Molecule: CN[C@@H](C)C(=O)N[C@H](C(=O)N1CCC[C@H]1Cc1c(-c2ccc(F)cc2)n(CCOCCOCCOC)c2cc(F)ccc12)C(C)(C)C [Q]

IC50 (BIR-3 domain of XIAP): 10 to 100 nM
EC50 (SK-OV-3 cells; [3]): 10 to 100 nM
IC50 (BIR-3 domain of cIAP-1 [1]): 10 to 100 nM
Molecule: CN[C@@H](C)C(=O)N[C@H](C(=O)N1CCC[C@H]1Cc1c(-c2ccc(N3CCOCC3)cc2)n(CCOCCOCCOC)c2cc(F)ccc12)C(C)(C)C [R]
